Data: US20260209247A1, “Substituted Tricyclic Compounds” (Lupin Limited, priority 2019, published 2026)

Tests used:
[1] = system: pERK after EGF stimulation in DLD1 cells; assay: ERK phosphorylation assay (alphascreen pERK); type: cell-based; settings: Homo sapiens, DLD-1, 2 h compound, 200 ng/ml hEGF for 5 minutes, read-out: ERK phosphorylation inhibition IC50
Procedure: Compounds were tested for their ability to inhibit pERK after EGF stimulation in DLD1 cells. Cells were seeded at 0.2 million cells per well in 96 well cell binding tissue culture plate in 100 μL complete media and were allowed to settle overnight (16 to 20 h). On the following day, cells were treated with various concentrations of test compounds for 2 h followed by stimulation with 200 ng/ml hEGF (diluted in PBS) for 5 minutes. Cells were then washed once with PBS and lysed in freshly prepared lysis buffer (provided with alphascreen surefire ERK1/2 p-T202/Y204 assay kit, cat no: TGRESB10K, Perkin Elmer). Lysis was carried out in plate shaker for 10-15 mins. Lysate was transferred to […] white opti-plate (Perkin Elmer) and alphascreen for pERK was carried out as per manufacturer's instructions. Plate was read after 2 h incubation in plate shaker at […] 300 RPM, 25-28° C. The difference between the unstimulated and stimulated Vehicle control is considered as 100% ERK phosphorylation, and % inhibition of compounds is calculated accordingly.

[2] = molecular target: T1, nucleotide exchange on hKRASG12C mediated by hSOS1 (Homo sapiens, UniProt Q07889); assay: Guanine nucleotide exchange assay (GNEA, HTRF); type: biochemical; settings: HIS-hSOS1 564-1049aa mediated GTP loading onto GST-hKRASG12C 1-169aa, read-out: Guanine nucleotide exchange inhibition IC50
T1 construct: HIS-hSOS1, 564-1049aa mediated GTP loading onto GST-hKRASG12C; His (N); made in house
T1 sequence (Q07889 564-1049): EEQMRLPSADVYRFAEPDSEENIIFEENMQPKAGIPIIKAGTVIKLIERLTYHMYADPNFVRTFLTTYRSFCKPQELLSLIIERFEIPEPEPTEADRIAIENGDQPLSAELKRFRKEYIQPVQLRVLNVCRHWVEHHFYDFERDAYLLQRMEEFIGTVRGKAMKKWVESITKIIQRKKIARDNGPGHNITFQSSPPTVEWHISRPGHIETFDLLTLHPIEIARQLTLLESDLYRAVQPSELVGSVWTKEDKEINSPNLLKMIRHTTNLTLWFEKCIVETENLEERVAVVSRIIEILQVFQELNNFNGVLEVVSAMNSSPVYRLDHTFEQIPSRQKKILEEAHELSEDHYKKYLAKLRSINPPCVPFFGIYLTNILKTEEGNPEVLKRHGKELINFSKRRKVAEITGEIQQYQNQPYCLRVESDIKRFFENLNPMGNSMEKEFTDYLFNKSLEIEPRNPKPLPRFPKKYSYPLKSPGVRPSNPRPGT
Procedure: Example-154: Guanine nucleotide exchange assay (GNEA) GNEA assay was conducted to evaluate the effects of compounds on the nucleotide exchange on hKRASG12C mediated by hSOS1. Inhibitory effect of compounds on HIS-hSOS1, 564-1049aa mediated GTP loading onto GST-hKRASG12C, 1-169aa both expressed and purified in-house was assessed using HTRF detection technology in biochemical assay. Compounds were pre-incubated with hSOS1 working solution containing 10-50 nM hSOS1 and 200 nM EDA-GTP-DY-647P1 (Custom manufactured, Jena Biosciences) per well of a 384 well plate (Perkin Elmer, Cat #6007290) for 10 min at 20° C. in the assay buffer containing 10 mM HEPES, pH 7.4, 150 mM NaCl, 5 mM MgCl2, 1 mM DTT, 0.05% BSA fraction V and 0.0025% Igepal. Reaction was initiated by adding working solution of hKRASG12C containing 25-125 nM hKRASG12C and MAb Anti-GST-Tb (#61GSTTLA, Cisbio BioAssays) in assay buffer. Total assay volume was 15 μL. Reaction was continued for 30-60 min at 20° C. HTRF signal was recorded in PHERAStar microplate reader. Ratio of signal obtained at 665 nm and 620 nm was used to compute the percent inhibition of compound as follows.

[3] = molecular target: T2, protein-protein interaction between hSOS1 and hKRASG12C (Homo sapiens, UniProt Q07889); assay: KRAS-SOS1 interaction assay (HTRF); type: binding; settings: GST-hSOS1 564-1049aa, HIS-hKRASG12C, read-out: KRAS-SOS1 Interaction inhibition IC50
T2 construct: GST-hSOS1, 564-1049aa expressed and purified in-house
T2 sequence (Q07889 564-1049): T1 sequence (Q07889 564-1049)
Procedure: Interaction assay was conducted to evaluate the ability of the compounds to disrupt the protein-protein interactions between hSOS1 and hKRASG12C. Inhibitory effect of compounds on GST-hSOS1, 564-1049aa expressed and purified in-house and HIS-hKRASG12C (R06-32DH, SignalChem) interaction was assessed using HTRF detection technology in biochemical assay. Compounds were pre-incubated with 10-50 nM working solution of hSOS1 per well of a 384 well plate (Perkin Elmer, Cat #6007290) for 10 min at 20° C. in the assay buffer containing 5 mM HEPES, pH 7.4, 150 mM NaCl, 10 mM EDTA, 1 mM DTT, 0.05% BSA fraction V and 0.0025% Igepal. Reaction was initiated by adding 100-300 nM working solution of hKRASG12C in assay buffer. Total assay volume was 15 μL. Reaction was continued for 30-60 min at 20° C. Then detection solution containing MAb Anti-GST-d2 (#61GSTDLA, Cisbio BioAssays) and MAb Anti-HIS-Tb (#61HISTLA, Cisbio BioAssays), all prepared in HTRF detection buffer (#61DB10RDF, Cisbio BioAssays) was added and further incubated for 30-60 min at 20° C. HTRF signal was recorded in PHERAStar microplate reader. Ratio of signal obtained at 665 nm and 620 nm was used to compute the percent inhibition of compound utilizing the following formula: […]

| SMILES | IC50 [1] [nM] | IC50 [2] [nM] | IC50 [3] [nM] |
| --- | --- | --- | --- |
| CO[C@]1(C)C(=O)N(C)c2cc3c(N[C@H](C)c4cccc(C(F)(F)[C@@](C)(O)CN(C)C)c4F)nc(C)nc3cc21 (racemic) [Compound 135b, (S/R)-4-(((R)-1-(3-((R/S)-3-(dimethylamino)-1,1-difluoro-2-hydroxy-2-methylpropyl)-2-fluorophenyl)ethyl)amino)-8-methoxy-2,6,8-trimethyl-6,8-dihydro-7H-pyrrolo[2,3-g]quinazolin-7-one] | 1 to 200 | 31 to 130 | 1 to 10 |
| COCC[C@]1(C)C(=O)N(C)c2cc3c(N[C@H](C)c4cccc(C(F)(F)C(C)(C)O)c4F)nc(C)nc3cc21 (single isomer, unassigned) [Compound 123a] | 1 to 200 | 1 to 30 | 1 to 10 |
| Cc1nc(N[C@H](C)c2cccc(C(F)(F)C(C)(C)O)c2F)c2cc3c(cc2n1)[C@]1(CCOC1)C(=O)N3C (single isomer, unassigned) [Compound 128a] | 1 to 200 | 1 to 30 | 1 to 10 |
| Cc1nc(N[C@H](C)c2cccc(C(F)(F)CO)c2F)c2cc3c(cc2n1)OC(C)CN3C (single isomer, unassigned) [Compound 36b] | 1 to 200 | 1 to 30 | 1 to 10 |
| COC1(C)C(=O)N(C)c2cc3nc(C)nc(N[C@H](C)c4cccc(C(F)(F)C(C)(C)O)c4F)c3cc21 (mixture of isomers) [Compound 96, (R&S)-4-(((R)-1-(3-(1,1-difluoro-2-hydroxy-2-methylpropyl)-2-fluorophenyl)ethyl)amino)-6-methoxy-2,6,8-trimethyl-6,8-dihydro-7H-pyrrolo[3,2-g]quinazolin-7-one] | 1 to 200 | 1 to 30 | 1 to 10 |
| Cc1nc(N[C@H](C)c2cccc(C(F)(F)CO)c2F)c2cc3c(cc2n1)N(C)C(=O)C31CC1 [Compound 66, (R)-4′-((1-(3-(1,1-difluoro-2-hydroxyethyl)-2-fluorophenyl)ethyl)amino)-2′,8′-dimethylspiro [cyclopropane-1,6′-pyrrolo[3,2-g]quinazolin]-7′(8′H)-one] | 1 to 200 | 1 to 30 | 1 to 10 |
| Cc1nc(NC(C)c2cccc(C(F)(F)C(C)(C)O)c2)c2cc3c(cc2n1)C(C)(C)C(=O)N3C (single isomer, unassigned) [Compound 73, (R/S)-4-((1-(3-(1,1-difluoro-2-hydroxy-2-methylpropyl)phenyl)ethyl)amino)-2,6,8,8-tetramethyl-6,8-dihydro-7H-pyrrolo[2,3-g]quinazolin-7-one] | 1 to 200 | 1 to 30 | 1 to 10 |
| CCN1C(=O)C(C)(C)c2cc3nc(C)nc(N[C@H](C)c4cccc(C(F)(F)C(C)(C)O)c4F)c3cc21 [Compound 64, (R)-4-((1-(3-(1,1-difluoro-2-hydroxy-2-methylpropyl)-2-fluorophenyl)ethyl)amino)-6-ethyl-2,8,8-trimethyl-6,8-dihydro-7H-pyrrolo[2,3-g]quinazolin-7-one] | 1 to 200 | 1 to 30 | 1 to 10 |
| Cc1nc(N[C@H](C)c2cccc(C(F)(F)C(C)(C)O)c2F)c2cc3c(cc2n1)O[C@@H](C)C(=O)N3C (single isomer, unassigned) [Compound 31a] | 1 to 200 | 1 to 30 | 1 to 10 |
| CCO[C@]1(C)C(=O)N(C)c2cc3c(N[C@H](C)c4cccc(C(F)(F)C(C)(C)O)c4F)nc(C)nc3cc21 (racemic) [Compound 121b, (S/R)-4-(((R)-1-(3-(1,1-difluoro-2-hydroxy-2-methylpropyl)-2-fluorophenyl)ethyl)amino)-8-ethoxy-2,6,8-trimethyl-6,8-dihydro-7H-pyrrolo[2,3-g]quinazolin-7-one] | 1 to 200 | 1 to 30 | 1 to 10 |
| Cc1nc(N[C@H](C)c2cccc(C(F)(F)C(C)(C)O)c2F)c2cc3c(cc2n1)OC(C)C(=O)N3C (single isomer, unassigned) [Compound 31b] | 1 to 200 | 1 to 30 | 1 to 10 |
| COC[C@](C)(O)C(F)(F)c1cccc([C@@H](C)Nc2nc(C)nc3cc4c(cc23)N(C)C(=O)C(C)(C)O4)c1F (racemic) [Compound 53a, 4—(((R)-1-(3-((S/R)-1,1-difluoro-2-hydroxy-3-methoxy-2-methylpropyl)-2-fluorophenyl)ethyl)amino)-2,6,8,8-tetramethyl-6H-[1,4]oxazino[3,2-g]quinazolin-7(8H)-one] | 1 to 200 | 1 to 30 | 1 to 10 |
| Cc1nc(N[C@H](C)c2cccc(C(F)(F)C(C)(C)O)c2F)c2cc3c(cc2n1)N(C)C(=O)C31CCCC1 [Compound 58, (R)-4′-((1-(3-(1,1-difluoro-2-hydroxy-2-methylpropyl)-2-fluorophenyl)ethyl)amino)-2′,8′-dimethylspiro[cyclopentane-1,6′-pyrrolo[3,2-g]quinazolin]-7′(8′H)-one] | 1 to 200 | 1 to 30 | 1 to 10 |
| COC[C@](C)(O)C(F)(F)c1cccc([C@@H](C)Nc2nc(C)nc3cc4c(cc23)N(C)C(=O)C4(C)C)c1F (single isomer, unassigned) [Compound 127b] | 1 to 200 | 1 to 30 | 1 to 10 |
| COC1(C)C(=O)N(C)c2cc3c(N[C@H](C)c4cccc(C(F)(F)C(C)(C)O)c4F)nc(C)nc3cc21 (stereo partly drawn) [Compound 101, (R&S)-4-(((R)-1-(3-(1,1-difluoro-2-hydroxy-2-methylpropyl)-2-fluorophenyl)ethyl)amino)-8-methoxy-2,6,8-trimethyl-6,8-dihydro-7H-pyrrolo[2,3-g]quinazolin-7-one] | 1 to 200 | 1 to 30 | 1 to 10 |
| Cc1nc(N[C@H](C)c2cccc(C(F)(F)CO)c2F)c2cc3c(cc2n1)N(C)C(=O)C31CCCC1 [Compound 62, (R)-4′-((1-(3-(1,1-difluoro-2-hydroxyethyl)-2-fluorophenyl)ethyl)amino)-2′,8′-dimethylspiro[cyclopentane-1,6′-pyrrolo[3,2-g]quinazolin]-7′(8′H)-one] | 1 to 200 | 1 to 30 | 1 to 10 |
